# Measured values: a melting point compilation (Tetko et al.; mined from patent text by program, amines drawn as free bases though some values may be those of a salt)
row,Compound,melting point
1,CCON=C(C)c1ccc2c(c1)ncn2-c1cccc(-c2cccnc2)c1,105 to 106 °C
2,N#CCNC(=O)C(Sc1nc2cc(Cl)ccc2s1)c1ccccc1 (stereo not given),167 to 169 °C
3,CCc1c([N+](=O)[O-])cc(C2CCNCC2)cc1[N+](=O)[O-],85 to 86 °C
4,OCCNCc1nnc2n1-c1ccc(Cl)cc1C(c1ccccc1)=NC2,162 to 164 °C
5,COC=C(C(=O)OC)c1ccccc1CC(=O)c1ccccc1,97 to 99 °C
6,NC(=O)Cc1ccc(-c2csc(N=C(N)N)n2)o1,219 to 220 °C
7,CC(=O)NC(c1ccc(F)cc1)(c1cc2c3c(c1)c(-c1cccc(Cl)c1)cc(=O)n3CC2)c1nncn1C (stereo not given),196 °C
8,NS(=O)(=O)c1cc(Cl)c(Cl)cc1OC(F)(F)F,181 to 185 °C
9,NC(=Nc1ccc(-n2cccc2)c(CNC(=O)CCCCC2CCSS2)c1)c1cccs1 (stereo not given),156 to 158 °C
10,CON(C)c1nc(C)cc(O)n1,128 to 129 °C
11,O=C1CCCCC1C(=S)Nc1ccc(Br)cc1F (stereo not given),94 to 95 °C
12,COc1ccc2c(c1)C(=O)N(c1ccc3ccoc3c1)C2,141 to 143 °C
13,CC1(C)CNC(=O)c2c1ccc1nc(Nc3c(Cl)cccc3Cl)[nH]c21,287 to 290 °C
14,CSc1ncc(Cc2cccs2)c(=O)[nH]1,170 to 172 °C
15,CCOC(=O)c1cc(-c2ccc(F)cc2)[nH]n1,148 to 150 °C
16,Cc1cc2nc(-c3ccc(F)cc3)cn2nc1Cl,196 to 198 °C
17,COc1ccc(-c2nc(C(=O)NCCO)c[nH]2)cc1OC1CCCC1,206 to 208 °C
18,Cc1nsc(-n2cc(C(=O)O)c(=O)c3cc(F)c(N4CCCC4)nc32)n1,> 300 °C
19,Cn1nc(-c2c(Nc3ccccc3)nc(N)nc2-c2ccccc2)ccc1=O,252 to 254 °C
20,CCOC(=O)c1ccc(NC(=O)CCCCCc2ccc(Cl)cc2)cc1,107 to 108 °C
21,NC(=O)c1cc2cccc(NC(=O)c3cccs3)c2[nH]1,289 to 290 °C
22,CC1=CCCN(C)C1COC(=O)c1c[nH]c2ccccc12 (stereo not given),172 °C
23,CCOC(=O)C(=O)Nc1c([N+](=O)[O-])cc(Br)c2c1CN(C)C2,153 to 154 °C
24,O=C1CCCc2c1[nH]c1ccc(F)cc21,131 °C
25,O=C(O)COc1cc(Cl)ccc1C(=O)NCc1cc(C(F)(F)F)cc(C(F)(F)F)c1,191 to 193 °C

row,Compound,melting point
1,COc1ccc2c(c1)c(OCc1ccccc1)c(C(=O)O)n2-c1ccccc1,123 °C
2,Cc1cc(-n2ccnc2)c2cccc(OCc3c(Cl)ccc(S(=O)(=O)N4CCC[C@H]4C(=O)N(C)CCCN(C)CCCCO)c3Cl)c2n1,82 °C
3,Cc1ccccc1NC1=CCC(C)n2c1ncc(C(=O)O)c2=O (stereo not given),157 to 159 °C
4,COc1cc2cc(-c3cccnc3)nc(-c3ccccc3)c2cc1OC,176 to 177 °C
5,CN1CCC(c2c(O)cc(O)c3c(=O)cc(Oc4ccccc4Cl)oc23)C(O)C1 (stereo not given),105 °C
6,COc1ccc(C(Nc2ccccc2)C(=O)OC(C)(C)C)cc1 (racemic),99 °C
7,NC1CCCn2c1nc(-c1ccncc1)cc2=O (racemic),144 to 146 °C
8,CC(C)c1nc2c(OCc3ccccc3)cc(Br)cc2n1C,132 to 133 °C
9,CC(C)C1(C)N=C2c3nc4sccc4cc3C(=O)N2C1=O (stereo not given),214 to 216 °C
10,O=[N+]([O-])c1cc(NS(=O)(=O)CCl)ccc1F,112 to 113 °C
11,COc1cc(Cl)ccc1CBr,42 to 45 °C
12,COc1ccc(S(=O)(=O)Nc2cccnc2Nc2ccccc2)c(OC)c1,176 to 178 °C
13,CC1(C)CCC(C)(C)c2cc(S(=O)c3ccc(C(=O)O)cc3)ccc21 (stereo not given),214 to 216 °C
14,Cn1ncc2c(=O)n3c(nc21)SCCC3,179 to 180 °C
15,CC(=O)NNC(=N)C(Cl)(Cl)Cl,130 to 132 °C
16,COCCOCOCc1c(OC)ccc2c1Oc1c(ccc(OC)c1CO)N2C,68 to 70 °C
17,CC1(C)CC(C)(C)c2cc(NC(=O)c3ccc(O)cc3)ccc21,185 to 187 °C
18,CCCn1nc(-c2sc(C(=O)NC(C)C)nc2-c2ccccc2)ccc1=O,146 to 148 °C
19,COCCOCCOCCn1c2ccc(C=O)cc2c2cc(C=O)ccc21,108 to 109 °C
20,COc1ccc(C=CC(=O)C2C(=O)C=C(C)OC2=O)cc1 (stereo not given),205 to 207 °C
21,COc1cc(C=C2NC(=O)NC2=O)cc(OC)c1OC,266 to 268 °C
22,O=C1CCSc2c(O)cccc21,225 to 232 °C
23,O=C1Nc2cc(C(F)(F)F)cnc2C1C(=O)OCc1ccccc1 (stereo not given),> 250 °C
24,CCOC(=O)Cc1ccc(-n2cc(F)cn2)cc1,83.5 to 84.5 °C
25,CC(C)Nc1nc(S(C)(=O)=O)nc(Cl)c1-c1c(F)cccc1Cl,145 to 149 °C

row,Compound,melting point
1,CCCCN(C(=O)NCCCCCCNC(=O)N(CCCC)C1CC(C)(CC)NC(C)(CC)C1C)C1CC(C)(CC)NC(C)(CC)C1C (stereo not given),146 °C
2,N#Cc1ccc(N(Cc2ccc(OS(N)(=O)=O)cc2)n2cnnc2)cc1-c1ccco1,177 to 178 °C
3,CN1C(=O)C(C(=N)c2ccccc2)=C(O)CC1c1ccccc1 (stereo not given),117 to 120 °C
4,CCCOC(=O)c1ccc2c(c1)S[C@@H](c1ccc(OC)cc1)[C@@H](OC(C)=O)C(=O)N2CCN(C)C (racemic),114 to 119 °C
5,COC(=O)c1ccc2occ(-c3cccc(OC(F)(F)F)c3)c2c1,93 to 94 °C
6,Oc1ccc(-c2cc3cc(O)cc(CC(F)(F)F)c3o2)cc1,210 to 213 °C
7,CCOC(=O)c1sc2cc(COc3cccnc3)ccc2c1S(=O)c1cccc(OC)c1 (stereo not given),113 to 115 °C
8,CCc1nc2c(O)c(CN(C)C)c(C(=O)N(C)C)cc2n1C,183 to 185 °C
9,CCc1cn(C2OC(CO)C(O)C2O)c(=O)[nH]c1=O (stereo not given),180 to 181 °C
10,Cc1nn(C(CCCc2ccccc2)C(C)O)c2ncn(Cc3ccc(Cl)c(Cl)c3)c(=O)c12 (stereo not given),160 °C
11,O=c1[nH]c(C(F)(F)F)nc2ccc(S(=O)(=O)O)cc12,> 330 °C
12,COC(=O)c1cc2nccnc2c(Cl)c1N,182 to 184 °C
13,CC(C)(C)[S@](=O)N1CCC[C@@H]1c1ccc(O)cc1,150 °C
14,O=[N+]([O-])c1cc(Cl)cc(C(c2cc(Cl)cc([N+](=O)[O-])c2O)C(F)(F)F)c1O,135 °C
15,CN(CCN(C)CCN1C(=O)c2cccc3cc4ccccc4c(c23)C1=O)CCN1C(=O)c2cccc3cc4ccccc4c(c23)C1=O,255 °C
16,CC(=O)N(O)Cc1ccccc1Nc1c(Cl)ccc(C)c1Cl,155 to 156 °C
17,O=CN1CCCN2c3ccccc3Cc3ccccc3C2C1 (stereo not given),146 to 148 °C
18,CN(C)C=Nc1c(Cl)cc(NCc2ccc(N(C)C)cc2Br)cc1Cl,135 to 137 °C
19,CC(C)CCN1N=C(c2ccc(F)cc2)c2cc(F)ccc2CS1(=O)=O,130 to 133 °C
20,COc1cc(OC)nc(C(C)c2ccccc2N)n1 (stereo not given),136 to 139 °C
21,CC=Cc1cc(OC)cc2cc(-c3ccc(OC)cc3)oc12,116 to 118 °C
22,C=C(C(=O)Nc1ccc(CCc2nnco2)cc1)c1cnn(C)c1-c1ccc(F)cc1,177 to 178 °C
23,C=CCN(c1nc(N2CCN(C(=O)n3ccnc3)CC2)nc(N(CC=C)C2CCCCC2)n1)C1CCCCC1,132 to 135 °C
24,COc1ccc(CCc2ccncc2N)cc1OC1CCCC1,108 to 110 °C
25,CCCCC(CC)COC(=O)C(C#N)=Cc1ccc(NC(=O)C(CC)CCCC)cc1 (stereo not given),68 °C

row,Compound,melting point
1,O=C1CCC(N2Cc3c(CNC(=O)c4ccncc4)cccc3C2=O)C(=O)N1 (stereo not given),282 to 284 °C
2,CCOC(=O)C(NC(C)=O)(C(=O)OCC)c1ccc([N+](=O)[O-])cn1,82 to 83 °C
3,CC(C)COC(=O)/C=C/C1NC(=O)CN1C(=O)OCc1ccccc1 (stereo not given),97 to 100 °C
4,Cc1c(-c2ccccc2)oc2cc(NC(=O)C(=O)O)ccc2c1=O,243 °C
5,CCOC(=O)C1=CCCCC1S(=O)(=O)Nn1c(C)ccc1C (stereo not given),96 to 97 °C
6,CN1CCN(C(=O)c2ccc3n2Cc2ccccc2N(C(=O)c2ccc(C4CCCCC4)cc2)C3)CC1,134 to 136 °C
7,CC(C)Oc1ccc(NCCS(=O)(=O)NCCCOc2cccc(CN3CCCCC3)c2)cc1,110 to 122 °C
8,Cc1nc(C=Cc2nc3ccc(F)cc3c(=O)n2-c2ccccc2Br)cs1,233 to 234 °C
9,CNc1nc(-c2ccc(F)cc2)n(-c2ccc(SC)cc2)c(=O)c1C#N,219 to 222 °C
10,CC(C)(C)OC(=O)N1CCc2c(n(CCOc3ccccc3)c3cc(Cl)c(Cl)cc23)CC1,136 to 138 °C
11,COc1ccc(N2CCN(C)[C@@H]3Cc4ccccc4[C@H]32)c(CO)c1 (relative stereo),179 to 183 °C
12,CC1(C)Oc2ccc(C#N)cc2[C@@H](N2CCCC2=O)[C@@H]1O (relative stereo),226 °C
13,CSC(=Cc1ccc(N)cc1)S(C)=O (stereo not given),165 to 166 °C
14,CS(=O)C1=NS(=O)(=O)c2cc(Cl)ccc2N1 (stereo not given),260 to 261 °C
15,CCCCCCCCNC(=O)n1nc(Oc2ncc(C(F)(F)F)cc2Cl)c(Cl)c1C,61 to 62 °C
16,Nc1ncc(-c2cccc(Nc3ccc(-c4ccco4)cc3[N+](=O)[O-])c2)cn1,178 to 180 °C
17,COc1cc(NC(=O)Nc2ccc(N3CCN(C(=O)Nc4cc(OCCO)ccc4Cl)CC3)cc2)cc(OC)c1,191 to 192 °C
18,Cc1cc2cc(F)ccc2n1-c1ccc(OCc2ccccc2)cc1,94 to 95 °C
19,CCn1cc(-c2nc(C#N)c(N)nc2-c2ccccc2)ccc1=O,193 to 199 °C
20,CN1C(=O)C(C(=O)Nc2ccc(Cl)cc2)S(=O)(=O)c2ccccc21 (stereo not given),220 to 222 °C
21,NCCN1CCC(Nc2nc3cccnc3n2Cc2ccccn2)CC1,151 °C
22,CS(=O)(=O)NCCn1c(CCO)nc2c(N)nc3cccnc3c21,136 to 138 °C
23,COCCOc1cc2ncnc(NC3=CC(=O)C(NCc4cccc(C)c4)=CC3=O)c2cc1OC,241 to 242 °C
24,CC(C)OCc1nc(C(C)(C)O)c(C(=O)O)n1Cc1ccc(-c2ccccc2-c2nnn[nH]2)cc1,153 to 161 °C
25,O=c1cc(-c2ccc(O)c(F)c2)oc2ncccc12,267 to 268 °C
